Columns and labels:
[1] = (§1) The drug is tested on Z-022 corresponding to mouse gut metagenome with ENA study accession number: PRJEB37062 and ENA sample accession number: ERS12561821 for biotransformation under anaerobic condition. The drug concentrations were measured over 9 timepoints collected between 0 and 24 hours of incubation by liquid-chromatography-coupled mass spectrometry (LC–MS); conditions: 2 µM
[2] = as §1, with “WLS-077” for “Z-022”, “human” for “mouse”, “ERS12561750” for “ERS12561821”; conditions: 2 µM
[3] = as §1, with “Z-018” for “Z-022”, “pig” for “mouse”, “ERS12561817” for “ERS12561821”; conditions: 2 µM
[4] = human gut metagenome, 24 h, 2 µM
[5] = human gut metagenome, 24 h, 2 µM; remark: listed apart in the source
[6] = human gut metagenome, 24 h, 2 µM; remark: listed apart in the source
[7] = human gut metagenome, 24 h, 2 µM; remark: listed apart in the source
[8] = as §1, with “WLS-086” for “Z-022”, “human” for “mouse”, “ERS12561752” for “ERS12561821”; conditions: 2 µM
[9] = as §1, with “WLS-082” for “Z-022”, “human” for “mouse”, “ERS12561751” for “ERS12561821”; conditions: 2 µM
Further: call rule not given here.

Structure (SMILES)	Bacterial Biotransformation [1]	Bacterial Biotransformation [2]	Bacterial Biotransformation [3]	Bacterial Biotransformation [4]	Bacterial Biotransformation [5]	Bacterial Biotransformation [6]	Bacterial Biotransformation [7]	Bacterial Biotransformation [8]	Bacterial Biotransformation [9]
CN1C(=O)CCS(=O)(=O)C1c1ccc(Cl)cc1 (stereo unspecified) [CHLORMEZANONE]	Compound NOT metabolized	Compound NOT metabolized	Compound NOT metabolized	Compound NOT metabolized	Compound NOT metabolized	Compound NOT metabolized	Compound NOT metabolized	Compound metabolized	Compound NOT metabolized
O=C1NCC2(CCN(CCc3ccccc3)CC2)O1 [FENSPIRIDE]	Compound metabolized	Compound NOT metabolized	Compound NOT metabolized	Compound NOT metabolized	Compound NOT metabolized	Compound NOT metabolized	Compound NOT metabolized	Compound metabolized	Compound NOT metabolized
CN1CCc2cccc3c2[C@H]1Cc1ccc(O)c(O)c1-3 [APOMORPHINE]	Compound NOT metabolized	Compound NOT metabolized	–	Compound NOT metabolized	Compound NOT metabolized	Compound NOT metabolized	Compound NOT metabolized	Compound NOT metabolized	–
OC(CCN1CCCCC1)(c1ccccc1)C1CC2C=CC1C2 (stereo unspecified) [BIPERIDEN]	–	Compound NOT metabolized	–	Compound NOT metabolized	Compound NOT metabolized	Compound NOT metabolized	Compound metabolized	Compound metabolized	Compound NOT metabolized
CCC1(c2ccc(N)cc2)CCC(=O)NC1=O (stereo unspecified) [AMINOGLUTETHIMIDE]	–	Compound NOT metabolized	Compound metabolized	Compound NOT metabolized	Compound NOT metabolized	Compound NOT metabolized	Compound NOT metabolized	Compound NOT metabolized	Compound NOT metabolized
COc1ccccc1N1CCN(CC(O)COc2cccc3ccccc23)CC1 (stereo unspecified) [NAFTOPIDIL]	Compound metabolized	Compound NOT metabolized	Compound NOT metabolized	Compound NOT metabolized	Compound NOT metabolized	Compound NOT metabolized	Compound NOT metabolized	Compound NOT metabolized	Compound NOT metabolized
CS(=O)(=O)O.O.O.O.O=C1Cc2cc(CCN3CCN(c4nsc5ccccc45)CC3)c(Cl)cc2N1 [ZIPRASIDONE MESYLATE]	–	Compound NOT metabolized	–	Compound metabolized	Compound NOT metabolized	Compound metabolized	Compound NOT metabolized	Compound metabolized	Compound metabolized
C#C[C@]1(O)CC[C@H]2[C@@H]3CCC4=Cc5oncc5C[C@]4(C)[C@H]3CC[C@@]21C [DANAZOL]	Compound metabolized	Compound metabolized	–	Compound metabolized	–	Compound NOT metabolized	Compound metabolized	Compound metabolized	Compound metabolized
CC(C)NCC(O)COc1ccc(COCCOC(C)C)cc1.CC(C)NCC(O)COc1ccc(COCCOC(C)C)cc1.O=C(O)/C=C/C(=O)O (stereo unspecified) [BISOPROLOL FUMARATE]	Compound metabolized	Compound NOT metabolized	Compound NOT metabolized	Compound NOT metabolized	Compound NOT metabolized	Compound NOT metabolized	Compound NOT metabolized	Compound metabolized	Compound NOT metabolized
NC(CO)(CO)CO.O=C(c1ccccc1)c1ccc2n1CCC2C(=O)O (stereo unspecified) [KETOROLAC TROMETHAMINE]	Compound metabolized	Compound metabolized	Compound NOT metabolized	Compound metabolized	Compound metabolized	Compound metabolized	Compound NOT metabolized	Compound metabolized	Compound metabolized
Cc1nc2n(c(=O)c1CCN1CCC(c3noc4cc(F)ccc34)CC1)CCCC2O (stereo unspecified) [PALIPERIDONE]	Compound NOT metabolized	Compound metabolized	Compound NOT metabolized	Compound metabolized	Compound metabolized	Compound metabolized	Compound NOT metabolized	Compound metabolized	–
CC(=O)O[C@]1(C(C)=O)CC[C@H]2[C@@H]3C=C(Cl)C4=CC(=O)[C@@H]5C[C@@H]5[C@]4(C)[C@H]3CC[C@@]21C [CYPROTERONE ACETATE]	–	Compound metabolized	–	Compound metabolized	Compound metabolized	Compound metabolized	Compound NOT metabolized	Compound metabolized	Compound NOT metabolized
C[C@@H]1CC[C@H]2[C@@H](C)C(=O)O[C@@H]3O[C@@]4(C)CC[C@@H]1[C@]32OO4 [ARTEMISININ]	Compound metabolized	Compound metabolized	Compound metabolized	Compound metabolized	Compound metabolized	–	Compound metabolized	Compound metabolized	Compound metabolized
CN(C)CCc1c[nH]c2ccc(Cn3cncn3)cc12.O=C(O)c1ccccc1 [RIZATRIPTAN BENZOATE]	Compound NOT metabolized	Compound NOT metabolized	Compound NOT metabolized	Compound NOT metabolized	–	Compound NOT metabolized	–	Compound NOT metabolized	–
Cc1cn([C@H]2C[C@H](N=[N+]=[N-])[C@@H](CO)O2)c(=O)[nH]c1=O [ZIDOVUDINE]	Compound metabolized	–	Compound NOT metabolized	Compound NOT metabolized	Compound NOT metabolized	Compound NOT metabolized	Compound NOT metabolized	Compound NOT metabolized	Compound NOT metabolized
CN1C[C@H](C(=O)N[C@]2(C)O[C@@]3(O)[C@@H]4CCCN4C(=O)[C@H](Cc4ccccc4)N3C2=O)C=C2c3cccc4[nH]cc(c34)C[C@H]21.CN1C[C@H](C(=O)N[C@]2(C)O[C@@]3(O)[C@@H]4CCCN4C(=O)[C@H](Cc4ccccc4)N3C2=O)C=C2c3cccc4[nH]cc(c34)C[C@H]21.O=C(O)C(O)C(O)C(=O)O [ERGOTAMINE TARTRATE]	–	Compound metabolized	–	Compound metabolized	Compound NOT metabolized	Compound metabolized	Compound NOT metabolized	Compound metabolized	–
CN1CCN(CC/C=C2/c3ccccc3Sc3ccc(S(=O)(=O)N(C)C)cc32)CC1 [THIOTHIXENE]	–	Compound NOT metabolized	–	Compound metabolized	Compound NOT metabolized	Compound metabolized	Compound metabolized	Compound metabolized	Compound metabolized
Cc1ccc(/C(=C\CN2CCCC2)c2ccccn2)cc1 [TRIPROLIDINE]	Compound NOT metabolized	Compound NOT metabolized	–	Compound NOT metabolized	Compound NOT metabolized	Compound NOT metabolized	Compound NOT metabolized	Compound NOT metabolized	Compound NOT metabolized
COC(=O)C1=C(C)NC(C)=C(C(=O)OC(C)C)C1c1cccc2nonc12 (stereo unspecified) [ISRADIPINE]	–	Compound NOT metabolized	–	Compound metabolized	Compound NOT metabolized	Compound metabolized	Compound NOT metabolized	Compound metabolized	Compound metabolized
CN(C(=O)CN(CCO)CC(=O)N(C)C(C)(C)Cc1ccccc1)C(C)(C)Cc1ccccc1 [OXETHAZAINE]	–	Compound metabolized	–	Compound metabolized	Compound NOT metabolized	Compound metabolized	Compound NOT metabolized	Compound metabolized	Compound metabolized
COc1c2occc2cc2ccc(=O)oc12 [METHOXSALEN]	Compound NOT metabolized	Compound metabolized	Compound metabolized	Compound metabolized	Compound metabolized	Compound metabolized	Compound NOT metabolized	Compound metabolized	–

Source: ChEMBL document CHEMBL5724914, “Linking interpersonal differences in gut microbiota composition and drug biotransformation activity” (2024)
